Experimental data reported in PMC4872784 (Oncotarget, 2016).
“And” between values parts separate entries of the source, which are not always exact repeats. Identical values can stand only once. Counter-ions that a name gives are not always drawn.

Assays:
KOPN8 cells = assay: alamarBlue cytotoxicity assay, 48h; format: cell-based, human; details: RPMI + 10% FBS
Experimental: (§1) Following subtraction of background fluorescence from all wells, fluorescence of drug-treated cells was normalized to that of vehicle (<0.5% DMSO)-treated cells to determine the effect of each drug concentration on viability. Each cell line was tested in triplicate and in at least three independent experiments. IC50 (concentration that inhibits cell growth by 50%) values were calculated using CompuSyn software (ComboSyn, Paramus, NJ). […] In addition several cell lines were initially cultured and tested in alternative media (Supplementary Table S2). […] Colony counts were normalized to vehicle-treated controls (100%). Three independent experiments were performed.
(§2) In most experiments, cytotoxicity was assessed using alamarBlue assays (Life Technologies, Grand Island, NY). In experiments using NAC and DFO, which can interfere with alamarBlue assay performance, Trypan Blue dye exclusion was used instead. […]
(§3) experiments performed in triplicate. […] Age refers to age […]
(§4) at the time of leukemia diagnosis of the patient from whom the cell line was derived. (–) Indicates information unavailable.
(§5) *Cell lines with FLT3/ITD mutations.
(§6) *The MV-4–11 cell line was derived from a patient with a biphenotypic B-myelomonocytic leukemia; K562 was derived […]
(§7) 1A. p53 status was obtained from http://cancer.sanger.ac.uk/cell_lines/cbrowse/all and http://p53.free.fr/Database/Cancer_ cell_lines/Leukemia_cancer. html. WT: wild type. Mut: mutant. SM: single mutation. DM: double mutation. MM: multiple mutations. Fs: Frameshift mutation. Null: protein expression undetectable. […]
(§8) measured via alamarBlue assay. […]

MOLM14 cells [1] = assay: alamarBlue cytotoxicity assay, 48h; format: cell-based, human; details: MOLM14 (AML), 48h, RPMI + 10% FBS
Experimental: as §1, §2, §3, §4, §5, §6, §7, §8

MOLM14 cells [2] = assay: viable cell counts via Trypan Blue dye exclusion, 48h; format: cell-based, human; details: read-out: approximate 48h IC50
Experimental: A. Quantification of the percentage of early apoptotic cells (Annexin-V+/7-AAD-) from three independent experiments in which cells were stained for apoptosis with 7-AAD and Annexin-V then analyzed by flow cytometry. […] C. […] 16h after addition of drugs, cells were washed and analyzed by flow cytometry for CM-H2DCFDA fluorescence (indicating total ROS generation) in the FL1 channel. Mean Fluorescence Intensity (MFI) was normalized to that of vehicle control (0.5% DMSO) with no pretreatment. […] Viable cell counts, obtained via Trypan Blue dye exclusion, were normalized to vehicle (0.02% DMSO)-treated samples +/– pretreatment.
In most experiments, cytotoxicity was assessed using alamarBlue assays (Life Technologies, Grand Island, NY). In experiments using NAC and DFO, which can interfere with alamarBlue assay performance, Trypan Blue dye exclusion was used instead.

[3] = plasma pharmacokinetics after single oral dose; details: single oral dose AS 200 mg/kg, NSG mice
Experimental: (§9) Plasma samples were obtained from 3-6 male NSG mice per time point (15min-24h after drug administration). Symbols represent concentrations of compound by LC/MS-MS detection.
(§10) Blood samples were collected via retro-orbital bleeding into EDTA-coated tubes. PK samples were centrifuged to obtain plasma, which was stored frozen (−80°C) until liquid chromatography/triple quadrupole mass spectrometry (LC/MS-MS) analysis.
(§11) were separated using an Agilent Zorbax Eclipse C18 column (2.1 mm x 50 mm, 3.5 μm) using gradient mobile phase
(§12) (acetonitrile and 2 mM ammonium acetate both containing 0.1% formic acid) and a gradient flow rate (0.2 to 0.4 ml/
(§13) min). An AB Sciex 5500 triple quadrupole mass spectrometer was used for detection. The m/z transitions used were
(§14) The calibration range was 5–1,000 ng/mL for all analytes. Mean drug concentrations were calculated at each time point. PK parameters (plasma
(§15) half-life [T1/2]; time to reach Cmax [Tmax]; maximum plasma concentration [Cmax]; area under the plasma concentration-
(§16) time curve [AUC] from time zero to the last measurable concentration [AUClast]; AUC from time zero to infinity [i.e.,
(§17) the AUClast + the extrapolated AUC from AUClast to infinity; AUC0–∞]; apparent volume of distribution [Vz/F]; body
(§18) weight-adjusted apparent clearance [CL/F/kg]) were calculated from mean drug concentration-time data using non-
(§19) the r2 of the elimination rate constant (λ ) was < 0.9, the AUC , CL/F, and T were not reported (NR).

in vivo = details: male, NSG, mouse, plasma, po, 200 mg/kg
Experimental: as §9, §10, §11, §12, §13, §14, §15, §16, §17, §18, §19

[4] = Homo sapiens, KOPN-8, KOPN8 (B-ALL)

Nc1ccn([C@@H]2O[C@H](CO)[C@@H](O)[C@@H]2O)c(=O)n1 [ARA, cytosine arabinoside]
IC50 (KOPN8 cells; KOPN8 (B-ALL)): 73 nM
IC50 (MOLM14 cells [1]): 286 nM

CC(=O)N(O)CCCCCNC(=O)CCC(=O)N(O)CCCCCNC(=O)CCC(=O)N(O)CCCCCN [DFO, deferoxamine mesylate]
IC50 (MOLM14 cells [2]; Homo sapiens, MOLM-14, 48 h): ~11000 nM

C[C@H]1[C@@H](O)O[C@@H]2O[C@@]3(C)CC[C@H]4[C@H](C)CC[C@@H]1[C@@]24OO3 [DHA, dihydroartemisinin]
T1/2 ([3]; plasma): < 60 min
time by which plasma declined to undetectable levels [3]: ≤ 4 h
AUC(0-inf) (in vivo): 1300 ng·h/mL
AUC(0-t) (in vivo): 1290 ng·h/mL
CL/F (in vivo): 2050 mL/min/kg
Cmax (in vivo): 1630 ng/mL and 5.74 µM
Tmax (in vivo): 15 min
Vd/F (in vivo): 103 L/kg
half-life (in vivo): 34.8 min
IC50 (KOPN8 cells; [4]): 351 nM
IC50 (MOLM14 cells [1]; Homo sapiens, MOLM-14): 1020 nM

COc1cccc2c1C(=O)c1c(O)c3c(c(O)c1C2=O)C[C@@](O)(C(=O)CO)C[C@@H]3O[C@H]1C[C@H](N)[C@H](O)[C@H](C)O1 [DOX, doxorubicin]
IC50 (KOPN8 cells; [4]): 30 nM
IC50 (MOLM14 cells [1]; Homo sapiens, MOLM-14): 79 nM

COc1cc([C@@H]2c3cc4c(cc3[C@@H](O[C@@H]3O[C@@H]5CO[C@@H](C)O[C@H]5[C@H](O)[C@H]3O)[C@H]3COC(=O)[C@H]23)OCO4)cc(OC)c1O [ETO, etoposide]
IC50 (KOPN8 cells; [4]): 150 nM
IC50 (MOLM14 cells [1]; Homo sapiens, MOLM-14): 242 nM

C[C@]12O[C@H](C[C@]1(O)CO)n1c3ccccc3c3c4c(c5c6ccccc6n2c5c31)CNC4=O [LES, lestaurtinib]
IC50 (KOPN8 cells; [4]): 45 nM
IC50 (MOLM14 cells [1]; Homo sapiens, MOLM-14): 3 nM

CO[C@@H]1[C@H](N(C)C(=O)c2ccccc2)C[C@H]2O[C@]1(C)n1c3ccccc3c3c4c(c5c6ccccc6n2c5c31)C(=O)NC4 [MID, midostaurin]
IC50 (KOPN8 cells; [4]): 210 nM

CC(=O)N[C@@H](CS)C(=O)O [NAC, N-acetyl cysteine]
IC50 (MOLM14 cells [2]; MOLM14, preliminary experiments): ~25000 nM

CNC(=O)c1cc(Oc2ccc(NC(=O)Nc3ccc(Cl)c(C(F)(F)F)c3)cc2)ccn1 [SOR, sorafenib]
IC50 (KOPN8 cells; [4]): 4200 nM
IC50 (MOLM14 cells [1]; Homo sapiens, MOLM-14): 4 nM
